{"source": "patent US11999749B2", "about": "“Synthesis of a bis-mesylate salt of 4-amino-N-(1-((3-chloro-2-fluorophenyl)amino)-6-methylisoquinolin-5-yl)thieno[3,2-d]pyrimidine-7-carboxamide and intermediates thereto” (Genentech, Inc., priority 2021, dated 2024)", "key": {"[1]": {"experiment": "solubility screen of 1b in organic solvents", "assay_type": "physicochemical", "description": "This is notwithstanding the previously established solubility of 1b in NMP; that solvent should not be used due to its toxicity and the allowed limit of ˜500 ppm in the final pharmaceutical product. The limit for NMP is considerably lower than the 5,000 ppm permitted for DMSO. One of the reasons for relying on the recrystallization step is to remove an excess of NMP from the final product.\nThe selection of an appropriate anti-solvent is based at least in part on good miscibility with the other solvent(s) being used, low solubility of the solid form (to give desired form), and the ability to effectively remove impurities. To ensure the best control and purge of inorganic impurities in the crude product, water was selected as the anti-solvent. To this end, a more detailed solubility study of the crude material in DMSO/water mixtures at 10, 70, 75 and 80° C. indicated a steep dependence of the solubility of 1b on water content, with temperature having a smaller impact on recovery yield."}, "[2]": {"experiment": "hygroscopicity of the salt forms", "assay_type": "physicochemical", "settings": "relative to the bis-HCl salt"}}}
{"smiles": "Cc1ccc2c(Nc3cccc(Cl)c3F)nccc2c1NC(=O)c1csc2c(N)ncnc12", "note": "[Compound 1b, 4-amino-N-(1-((3-chloro-2-fluorophenyl)amino)-6-methylisoquinolin-5-yl)thieno[3,2-d]pyrimidine-7-carboxamide bis-mesylate]", "values": [{"measurement": "solubility", "setting": "[1]; in DMSO", "value": "sufficient solubility"}, {"measurement": "solubility", "setting": "[1]; in most organic solvents, initial solubility screen", "value": "exceptionally low solubility"}, {"measurement": "hygroscopicity", "setting": "[2]", "value": "lower hygroscopicity"}]}
